Experimental data as given in PubChem BioAssay (NCI).
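How tested: cells in 96-well plates exposed to compound for 48 hours at five concentrations. GI50 = concentration required for 50% inhibition of growth. Definition used: TGI = concentration required for complete inhibition of growth.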

Key:
Assay in all cases: NCI tumour cell line growth inhibition, 48 h
HOP-62 NSCLC = test system: HOP-62 NSCLC
HCT-116 colon = test system: HCT-116 colon
MCF7 breast = test system: MCF7 breast
MOLT-4 leukemia = test system: MOLT-4 leukemia
HT29 colon = test system: HT29 colon
BT-549 breast = test system: BT-549 breast
SNB-75 CNS = test system: SNB-75 CNS
NCI-H460 lung = test system: NCI-H460 lung
MALME-3M melanoma = test system: MALME-3M melanoma
TK-10 renal = test system: TK-10 renal
NCI-H226 lung = test system: NCI-H226 lung
DU-145 prostate = test system: DU-145 prostate
HL-60(TB) leukemia = test system: HL-60(TB) leukemia
SW-620 colon = test system: SW-620 colon
MDA-MB-231 breast = test system: MDA-MB-231 breast
SNB-19 CNS = test system: SNB-19 CNS
U251 CNS = test system: U251 CNS
LOX IMVI melanoma = test system: LOX IMVI melanoma
IGROV1 ovarian = test system: IGROV1 ovarian
T-47D breast = test system: T-47D breast
PC-3 prostate = test system: PC-3 prostate
RPMI-8226 leukemia = test system: RPMI-8226 leukemia
HS 578T breast = test system: HS 578T breast
OVCAR-8 ovarian = test system: OVCAR-8 ovarian
SF-539 CNS = test system: SF-539 CNS
A498 renal = test system: A498 renal
OVCAR-4 ovarian = test system: OVCAR-4 ovarian
NCI/ADR-RES ovarian = test system: NCI/ADR-RES ovarian
M14 melanoma = test system: M14 melanoma
SK-MEL-28 melanoma = test system: SK-MEL-28 melanoma
RXF 393 renal = test system: RXF 393 renal
OVCAR-5 ovarian = test system: OVCAR-5 ovarian
CAKI-1 renal = test system: CAKI-1 renal
SN12C renal = test system: SN12C renal
HCT-15 colon = test system: HCT-15 colon
786-0 renal = test system: 786-0 renal
SR leukemia = test system: SR leukemia
COLO 205 colon = test system: COLO 205 colon
K-562 leukemia = test system: K-562 leukemia
SK-MEL-5 melanoma = test system: SK-MEL-5 melanoma
KM12 colon = test system: KM12 colon
NCI-H23 lung = test system: NCI-H23 lung
SF-295 CNS = test system: SF-295 CNS
UACC-62 melanoma = test system: UACC-62 melanoma
SK-MEL-2 melanoma = test system: SK-MEL-2 melanoma
SF-268 CNS = test system: SF-268 CNS
OVCAR-3 ovarian = test system: OVCAR-3 ovarian
HOP-92 NSCLC = test system: HOP-92 NSCLC
ACHN renal = test system: ACHN renal
HCC-2998 colon = test system: HCC-2998 colon
SK-OV-3 ovarian = test system: SK-OV-3 ovarian
MDA-MB-435 = test system: MDA-MB-435
UO-31 renal = test system: UO-31 renal

## CSC1=NC(=Nc2c(C)cccc2C)C2(CCC(C(C)(C)C)CC2)N1c1ccc(Cl)cc1 (stereo unspecified)
HOP-62 NSCLC
  GI50: > 100 µM
  TGI: > 100 µM
HCT-116 colon
  GI50: 4.87 µM
  TGI: > 100 µM
MCF7 breast
  GI50: 26.5 µM
  TGI: > 100 µM
MOLT-4 leukemia
  GI50: 6.82 µM
  TGI: > 100 µM
HT29 colon
  GI50: 38 µM
  TGI: > 100 µM
BT-549 breast
  GI50: 54.1 µM
  TGI: > 100 µM
SNB-75 CNS
  GI50: > 100 µM
  TGI: > 100 µM
NCI-H460 lung
  GI50: 4.68 µM
  TGI: > 100 µM
MALME-3M melanoma
  GI50: 42.6 µM
  TGI: > 100 µM
TK-10 renal
  GI50: 39.8 µM
  TGI: > 100 µM
NCI-H226 lung
  GI50: 8.93 µM
  TGI: > 100 µM
DU-145 prostate
  GI50: > 100 µM
  TGI: > 100 µM
HL-60(TB) leukemia
  GI50: 7.94 µM
  TGI: > 100 µM
SW-620 colon
  GI50: 27 µM
  TGI: > 100 µM
MDA-MB-231 breast
  GI50: > 100 µM
  TGI: > 100 µM
SNB-19 CNS
  GI50: > 100 µM
  TGI: > 100 µM
U251 CNS
  GI50: 8.04 µM
  TGI: > 100 µM
LOX IMVI melanoma
  GI50: 6.66 µM
  TGI: > 100 µM
IGROV1 ovarian
  GI50: 63.5 µM
  TGI: > 100 µM
T-47D breast
  GI50: 20.8 µM
  TGI: > 100 µM
PC-3 prostate
  GI50: 6.05 µM
  TGI: > 100 µM
RPMI-8226 leukemia
  GI50: 6.35 µM
  TGI: > 100 µM
HS 578T breast
  GI50: 95.8 µM
  TGI: > 100 µM
OVCAR-8 ovarian
  GI50: 15.1 µM
  TGI: > 100 µM
SF-539 CNS
  GI50: 71.7 µM
  TGI: > 100 µM
A498 renal
  GI50: > 100 µM
  TGI: > 100 µM
OVCAR-4 ovarian
  GI50: > 100 µM
  TGI: > 100 µM
NCI/ADR-RES ovarian
  GI50: 77.7 µM
  TGI: > 100 µM
M14 melanoma
  GI50: 68.2 µM
  TGI: > 100 µM
SK-MEL-28 melanoma
  GI50: 99.6 µM
  TGI: > 100 µM
RXF 393 renal
  GI50: 52.4 µM
  TGI: > 100 µM
OVCAR-5 ovarian
  GI50: > 100 µM
  TGI: > 100 µM
CAKI-1 renal
  GI50: 6.59 µM
  TGI: > 100 µM
SN12C renal
  GI50: 40.8 µM
  TGI: > 100 µM
HCT-15 colon
  GI50: 7.42 µM
  TGI: > 100 µM
786-0 renal
  GI50: 68.7 µM
  TGI: > 100 µM
SR leukemia
  GI50: 4.21 µM
  TGI: > 100 µM
COLO 205 colon
  GI50: 46.4 µM
  TGI: > 100 µM
K-562 leukemia
  GI50: 4.76 µM
  TGI: > 100 µM
SK-MEL-5 melanoma
  GI50: 9.32 µM
  TGI: > 100 µM
KM12 colon
  GI50: 20.9 µM
  TGI: > 100 µM
NCI-H23 lung
  GI50: 24.7 µM
  TGI: > 100 µM
SF-295 CNS
  GI50: 29.9 µM
  TGI: > 100 µM
UACC-62 melanoma
  GI50: 45.3 µM
  TGI: > 100 µM
SK-MEL-2 melanoma
  GI50: > 100 µM
  TGI: > 100 µM
SF-268 CNS
  GI50: 32.5 µM
  TGI: > 100 µM
OVCAR-3 ovarian
  GI50: 54.1 µM
  TGI: > 100 µM
HOP-92 NSCLC
  GI50: 67.8 µM
  TGI: > 100 µM
ACHN renal
  GI50: 8.4 µM
  TGI: > 100 µM
HCC-2998 colon
  GI50: 92.9 µM
  TGI: > 100 µM
SK-OV-3 ovarian
  GI50: > 100 µM
  TGI: > 100 µM
MDA-MB-435
  GI50: 30.9 µM
  TGI: > 100 µM
UO-31 renal
  GI50: 25.2 µM
  TGI: > 100 µM
